Read-outs that look alike come from different tables or passages of the source. Where no end group is shown, it is not given here.

Results on 13 compounds are retold here after US9090655B2, “Low hemolytic antimicrobial peptide, pharmaceutical composition and use thereof” (priority 2010, dated 2015).

What all share (assay type): cell-based
For data set [1], the system named is human red blood cells (hRBC). Kind of data set: Hemolytic assay. The following applies: for lysis percentage: hRBC 5% v/v, one hour at 37° C. On the procedure: Melittin, Pem-2252 L and Pem-2254 L were tested for hemolysis against human red blood cells (hRBC). […] The hRBCs with EDTA were rinsed 3 times with PBS (800×g, 10 min) and re-suspended in PBS. The hRBCs were diluted into 10% with phosphate-buffered saline and placed 50 μl into each eppendorf. The peptides dissolved in PBS were then added to 50 μl of 10% solution of hRBCs and incubated for an hour at 37° C. (final hRBC concentration, 5% v/v). The samples were centrifuged at 800 g for 10 min […]. Various concentrations of peptides were incubated with pretreated hRBC and the percentage of hemolysis determined (Percentage lysis, Zero hemolysis (blank) and 100% hemolysis were determined in PBS buffer and 1% Triton X-100). […] At 5 μg/ml, 50 μg/ml and 400 μg/ml, its lysis percentages were 0.45%, 1.52% and 16.35%, respectively.

A further data set concerns E. coli (ATCC 25922). The procedure:
(§1) The in vitro antimicrobial activities of antimicrobial agents were tested using minimum inhibition concentration (MIC) tests. The MIC value is the lowest concentration of peptide at which the visible growth of test organisms was inhibited and reduced. The test strains herein were E. coli (ATCC 25922), Pseudomonas aeruginosa (ATCC 27853) and Staphylococcus aureus (ATCC 29213).
(§2) Overnight cultures of the test organisms were diluted to produce an inoculum containing approximately 10^5 colonies in Meuller-Hinton broth (MHB). Peptide solution with different concentrations was added to diluted culture of the test organisms. After 18 hours of incubation at 37° C., the results were assayed for turbidity as an indicator of cell growth. MIC values for the peptides were measured three times at different time points. […] On the other hand, modifications for primary or secondary structures without influencing their activity, such as acetylation, amidation, formylation, hydroxylation, lipid modification, methylation or phosphorylation, were performed herein.

Data set [2] has as its system Pseudomonas aeruginosa (ATCC 27853). On the procedure: as §1, §2
The test system of data set [3] is Staphylococcus aureus (ATCC 29213). On the procedure: as §1, §2
Data set [4] concerns outer membrane of E. coli. The experiment in a line: Outer membrane permeabilization, NPN uptake assay. Particulars: intact E. coli cells, NPN fluorescence. On the procedure:
The outer membrane permeabilization activity of the peptide variants was determined by the 1-N-phenylnaphthylamine (NPN) uptake assay, using intact cells of E. coli. […] Since NPN is hydrophobic, it provides a direct measurement of the degree of outer membrane permeability. E. coli take up little or no NPN in a general condition. […] Fluorescence would vary with the concentration of peptide. The steps of the embodiment were described as follow. One ml of overnight culture was used to inoculate 50 ml of media and incubated at 37° C. with shaking. The culture was permitted to grow to an OD600 of 0.4 to 0.6, cells were spun down at 3500 rpm for 10 minutes, washed, and re-suspended in buffer to an OD600 of 0.5. The OD600 was recorded, 1 ml of cells (OD600=0.5) was added to the cuvette and measured after 2-5 seconds. 20 μl NPN 0.5 mM, shaken to mix, was added and measured after 2-5 seconds. 10 ul antibiotic 100× desired final concentration was added, shaken to mix, and measured until the maximal value was reached within 1 to 5 minutes. The concentration of peptide leading to 50% of the maximum increase in NPN uptake was recorded as the P50. As results shown in table 4, all of the peptides were capable of interacting with membrane.

The test system of a further data set is Bacillus cereus. From the text: (§3) The MIC values against various strains are shown in table 3, Pem-2251 L and Pem-2254 L have great microbial activity as well.
A further data set deals with E. coli.
Text: as §3

The next data set relates to Pseudomonas aeruginosa.
Text: as §3

Data set [5] relates to Staphylococcus epidermidis.
Text: as §3

The test system of another data set is Bacillus pumilus.
Text: as §3

For a further data set, the system named is Staphylococcus aureus.
Text: as §3

The next data set concerns Bacillus substilis.
Text: as §3

Where [6] appears, read: E. coli ATCC 25922, MHB, 18 hours at 37° C., mean of three.
The mark [7] stands for this setting: P. aeruginosa ATCC 27853, MHB, 18 hours at 37° C., mean of three.
The mark [8] stands for this setting: S. aureus ATCC 29213, MHB, 18 hours at 37° C., mean of three.

Turning to `CC[C@H](C)[C@H](NC(=O)CN)C(=O)NCC(=O)N[C@@H](C)C(=O)N[C@H](C(=O)N[C@@H](CC(C)C)C(=O)N[C@@H](CCCCN)C(=O)N[C@H](C(=O)N[C@@H](CC(C)C)C(=O)N[C@H](C(=O)N[C@H](C(=O)NCC(=O)N[C@@H](CC(C)C)C(=O)N1CCC[C@H]1C(=O)N[C@@H](C)C(=O)N[C@@H](CC(C)C)C(=O)N[C@H](C(=O)N[C@@H](CO)C(=O)N[C@@H](Cc1c[nH]c2ccccc12)C(=O)N[C@H](C(=O)N[C@@H](CCCCN)C(=O)N[C@@H](CCCNC(=N)N)C(=O)N[C@@H](CCCCN)C(=O)N[C@@H](CCCNC(=N)N)C(=O)N[C@@H](CCC(N)=O)C(=O)N[C@@H](CCC(N)=O)C(N)=O)[C@@H](C)CC)[C@@H](C)CC)[C@@H](C)O)[C@@H](C)O)C(C)C)C(C)C` [Melittin, reference compound], the lysis percentage in data set [1] (5 μg/ml peptide) is given as 50%; in data set [1] (50 μg/ml peptide), 100%; in [1] (400 μg/ml peptide), 100%.

In the case of “KFKRWLA-NH2 [Pem-1001 L, Lys Phe Lys Arg Trp Leu Ala]”, the MIC was 50 µg/mL in the data set with E. coli (ATCC 25922) (ATCC 25922, 18 h); 50 µg/mL in [2] (ATCC 27853, 18 h); 50 µg/mL in data set [3] (ATCC 29213, 18 h). In addition, the “P50 (concentration of peptide leading to 50% of the maximum increase in NPN uptake)” value in data set [4] worked out at 6.25 µg/mL.

For “KKFRRFVRFIAKK-NH2 [Pem-2253 L, Lys Lys Phe Arg Arg Phe Val Arg Phe Ile Ala Lys Lys]”, the MIC against E. coli (ATCC 25922) (ATCC 25922, 18 h) amounted to 12.5 µg/mL; in data set [2] (ATCC 27853, 18 h), 12.5 µg/mL; in data set [3] (ATCC 29213, 18 h) it was 12.5 µg/mL.

For “KKWRAWLKWLAKK-NH2 [Pem-2251 L, Lys Lys Trp Arg Ala Trp Leu Lys Trp Leu Ala Lys Lys]”, the MIC with E. coli (ATCC 25922) (ATCC 25922, 18 h) stood at 1.565 µg/mL; in data set [2] (ATCC 27853, 18 h), 6.25 µg/mL; in data set [3] (ATCC 29213, 18 h), 12.5 µg/mL; with Bacillus cereus, 6.25 µg/mL; against E. coli, 3.125 µg/mL; in the data set with Pseudomonas aeruginosa, 6.25 µg/mL. Moreover, the MIC in [5] came to 3.125 µg/mL; in the data set on Bacillus pumilus it was 6.25 µg/mL; in the data set with Staphylococcus aureus, 3.125 µg/mL; in the data set with Bacillus substilis, 3.125 µg/mL. Moreover, the “P50 (concentration of peptide leading to 50% of the maximum increase in NPN uptake)” value in data set [4] turned out to be 6.25 µg/mL.

In the case of “KKWRKWLKWLAKK-NH2 [Pem-2254 L, Lys Lys Trp Arg Lys Trp Leu Lys Trp Leu Ala Lys Lys]”, the figures for the lysis percentage in [1] (5 μg/ml peptide), in [1] (50 μg/ml peptide) and in data set [1] (400 μg/ml peptide) were 0.45%, 1.52% and 16.35%, respectively. In addition, the MIC with E. coli (ATCC 25922) (ATCC 25922, 18 h) amounted to 1.565 µg/mL; in [2] (ATCC 27853, 18 h), 1.565 µg/mL; in the data set with Bacillus cereus, 6.25 µg/mL; against E. coli it was 1.565 µg/mL; against Pseudomonas aeruginosa, 3.125 µg/mL; in data set [5], 1.565 µg/mL. Also, the results for the MIC against Bacillus pumilus, against Staphylococcus aureus and in the data set with Bacillus substilis were 3.125 µg/mL, 1.565 µg/mL and 3.125 µg/mL, respectively.

In the case of “KKWRKWLRAIAKK-NH2 [Pem-2252 L, Lys Lys Trp Arg Lys Trp Leu Arg Ala Ile Ala Lys Lys]”, the lysis percentage is recorded as 3.12% in data set [1] (5 μg/ml peptide); 0.45% in data set [1] (5 μg/ml peptide, listed as Pem-2252); 9.82% in data set [1] (50 μg/ml peptide); 1.52% in [1] (50 μg/ml peptide, listed as Pem-2252); 37.66% in data set [1] (400 μg/ml peptide); 16.35% in data set [1] (400 μg/ml peptide, listed as Pem-2252). Also, in data set [1] (compared with other antimicrobial peptides), the “hemolytic activity against hRBC, in words” value is reported as “less hemolytic against hRBC than other antimicrobial peptides”. Further, the MIC in the data set with E. coli (ATCC 25922) (ATCC 25922, 18 h) stood at 25 µg/mL; in [2] (ATCC 27853, 18 h) it was 25 µg/mL; in data set [3] (ATCC 29213, 18 h) it was 25 µg/mL.

As to “KWKIWLK-NH2 [Pem-1003 L, Lys Trp Lys Ile Trp Leu Lys]”, the MIC in the data set with E. coli (ATCC 25922) (ATCC 25922, 18 h) is 25 µg/mL; in data set [2] (ATCC 27853, 18 h), 12.5 µg/mL; in data set [3] (ATCC 29213, 18 h) it was 12.5 µg/mL.

Consider “Lys Lys Phe Arg Arg Phe Val Arg Phe Ile Ala Lys Lys (KKFRRFVRFIAKK; not fully specified (bridges); printed as Lys Lys Phe Arg Arg Phe Val Arg Phe Ile Ala Lys Lys; also: cyclic topology, ring type not given here) [Pem-2253 C]”, for which the MIC (in the data set with E. coli (ATCC 25922) (setting [6]); in data set [2] (setting [7]); in [3] (setting [8])) was 50 µg/mL each time.

Turning to “Lys Lys Trp Arg Ala Trp Leu Lys Trp Leu Ala Lys Lys (KKWRAWLKWLAKK; not fully specified (bridges); printed as Lys Lys Trp Arg Ala Trp Leu Lys Trp Leu Ala Lys Lys; also: cyclic topology, ring type not given here) [Pem-2251 C]”, the MIC was found to be 25 µg/mL against E. coli (ATCC 25922) (setting [6]), 25 µg/mL in data set [2] (setting [7]) and 50 µg/mL in data set [3] (setting [8]).

For “Lys Lys Trp Arg Lys Trp Leu Arg Ala Ile Ala Lys Lys (KKWRKWLRAIAKK; not fully specified (bridges); printed as Lys Lys Trp Arg Lys Trp Leu Arg Ala Ile Ala Lys Lys; also: cyclic topology, ring type not given here) [Pem-2252 C]”, the MIC (in the data set on E. coli (ATCC 25922) (setting [6]); in data set [2] (setting [7]); in [3] (setting [8])) was >50 µg/mL in each case.

Consider “Lys Lys Trp Arg Lys Trp Leu Lys Trp Leu Ala Lys Lys (KKWRKWLKWLAKK; not fully specified (bridges); printed as Lys Lys Trp Arg Lys Trp Leu Lys Trp Leu Ala Lys Lys; also: cyclic topology, ring type not given here) [Pem-2254 C]”, for which the minimum inhibitory concentration (MIC) against E. coli (ATCC 25922) (setting [6]) turned out to be 25 µg/mL; in data set [2] (setting [7]) it was 25 µg/mL; in data set [3] (setting [8]), 50 µg/mL.

Take “Lys Phe Arg Ala Trp Val Arg (KFRAWVR; not fully specified (bridges); printed as Lys Phe Arg Ala Trp Val Arg; also: cyclic topology, ring type not given here) [Pem-1002 C]”: the MIC (in the data set with E. coli (ATCC 25922) (setting [6]); in data set [2] (setting [7]); in data set [3] (setting [8])) was >50 µg/mL each time.

In the case of “Lys Phe Lys Arg Trp Leu Ala (KFKRWLA; not fully specified (bridges); printed as Lys Phe Lys Arg Trp Leu Ala; also: cyclic topology, ring type not given here) [Pem-1001 C]”, the MIC (with E. coli (ATCC 25922) (setting [6]); in [2] (setting [7]); in [3] (setting [8])) was >50 µg/mL each time.
